Test results as given in publication PMC3961306, “Comparison of the Cancer Gene Targeting and Biochemical Selectivities of All Targeted Kinase Inhibitors Approved for Clinical Use” (PLoS ONE, 2014).

Columns and labels:
Assay in all cases: Kinase profiling in a biochemical assay panel (mobility shift assays and ELISA), %-inhibition at 1 μM; selectivity entropy
[1] = target: panel of more than 300 wild-type and mutant kinases (313 kinase panel) (Homo sapiens, UniProt P07949, M918T); settings: 1 µM
[2] = target: panel of more than 300 wild-type and mutant kinases (313 kinase panel) (Homo sapiens, UniProt P08631); settings: 1 µM
[3] = target: panel of more than 300 wild-type and mutant kinases (313 kinase panel) (Homo sapiens, UniProt P08922); settings: 1 µM
[4] = target: panel of more than 300 wild-type and mutant kinases (313 kinase panel) (Homo sapiens, UniProt P14616); settings: 1 µM
[5] = target: panel of more than 300 wild-type and mutant kinases (313 kinase panel) (Homo sapiens, UniProt P49841); settings: kinase GSK3β; compound at 1 μM
[6] = target: panel of more than 300 wild-type and mutant kinases (313 kinase panel) (Homo sapiens, UniProt Q08345); settings: kinase DDR1; compound at 1 μM
[7] = target: T1, panel of more than 300 wild-type and mutant kinases (313 kinase panel) (Homo sapiens, UniProt Q15139); settings: 1 µM
T1 sequence (Q15139 1-912): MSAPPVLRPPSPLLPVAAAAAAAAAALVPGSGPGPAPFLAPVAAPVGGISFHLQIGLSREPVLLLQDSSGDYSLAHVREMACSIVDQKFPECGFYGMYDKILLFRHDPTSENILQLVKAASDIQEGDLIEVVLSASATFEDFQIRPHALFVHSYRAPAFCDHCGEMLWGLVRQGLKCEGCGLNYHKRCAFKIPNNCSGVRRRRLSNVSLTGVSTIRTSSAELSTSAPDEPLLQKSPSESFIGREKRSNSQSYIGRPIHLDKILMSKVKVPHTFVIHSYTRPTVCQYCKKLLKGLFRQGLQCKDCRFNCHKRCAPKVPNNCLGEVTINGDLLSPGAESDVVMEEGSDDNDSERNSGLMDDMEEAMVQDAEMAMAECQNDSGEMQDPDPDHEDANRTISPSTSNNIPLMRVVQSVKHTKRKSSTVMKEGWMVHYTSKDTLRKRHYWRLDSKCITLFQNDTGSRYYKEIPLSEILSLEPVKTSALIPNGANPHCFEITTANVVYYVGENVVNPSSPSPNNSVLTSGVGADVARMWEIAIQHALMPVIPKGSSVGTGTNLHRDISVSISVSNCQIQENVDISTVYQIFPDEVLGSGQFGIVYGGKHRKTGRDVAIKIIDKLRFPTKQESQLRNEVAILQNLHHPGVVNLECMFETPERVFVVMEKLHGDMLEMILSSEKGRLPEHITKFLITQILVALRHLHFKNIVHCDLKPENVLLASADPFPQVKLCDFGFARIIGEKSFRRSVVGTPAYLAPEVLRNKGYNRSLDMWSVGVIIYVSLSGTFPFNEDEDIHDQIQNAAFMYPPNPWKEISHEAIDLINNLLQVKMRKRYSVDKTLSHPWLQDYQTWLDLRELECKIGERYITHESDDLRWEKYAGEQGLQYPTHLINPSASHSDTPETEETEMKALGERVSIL

[8] = target: T2, panel of more than 300 wild-type and mutant kinases (313 kinase panel) (Homo sapiens, UniProt Q99759); settings: 1 µM
T2 sequence (Q99759 1-626): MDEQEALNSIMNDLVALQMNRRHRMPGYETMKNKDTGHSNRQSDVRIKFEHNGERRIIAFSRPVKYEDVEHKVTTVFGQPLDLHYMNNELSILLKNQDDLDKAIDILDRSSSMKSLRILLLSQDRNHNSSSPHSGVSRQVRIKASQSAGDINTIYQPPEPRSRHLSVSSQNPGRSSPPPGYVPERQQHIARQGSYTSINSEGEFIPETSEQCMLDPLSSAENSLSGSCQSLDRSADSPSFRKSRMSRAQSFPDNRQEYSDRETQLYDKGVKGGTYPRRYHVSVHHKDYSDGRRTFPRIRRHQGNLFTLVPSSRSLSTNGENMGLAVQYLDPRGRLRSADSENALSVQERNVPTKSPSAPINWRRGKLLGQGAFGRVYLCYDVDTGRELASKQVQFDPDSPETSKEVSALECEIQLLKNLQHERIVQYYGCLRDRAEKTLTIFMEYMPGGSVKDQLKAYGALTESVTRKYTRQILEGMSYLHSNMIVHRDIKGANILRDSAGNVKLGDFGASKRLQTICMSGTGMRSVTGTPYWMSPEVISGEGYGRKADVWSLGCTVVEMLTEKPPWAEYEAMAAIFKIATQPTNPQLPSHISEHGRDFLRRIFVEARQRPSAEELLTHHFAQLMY

Sequence of panel of more than 300 wild-type and mutant kinases (313 kinase panel) (Homo sapiens, UniProt P14616) (P14616 27-1297, change not shown): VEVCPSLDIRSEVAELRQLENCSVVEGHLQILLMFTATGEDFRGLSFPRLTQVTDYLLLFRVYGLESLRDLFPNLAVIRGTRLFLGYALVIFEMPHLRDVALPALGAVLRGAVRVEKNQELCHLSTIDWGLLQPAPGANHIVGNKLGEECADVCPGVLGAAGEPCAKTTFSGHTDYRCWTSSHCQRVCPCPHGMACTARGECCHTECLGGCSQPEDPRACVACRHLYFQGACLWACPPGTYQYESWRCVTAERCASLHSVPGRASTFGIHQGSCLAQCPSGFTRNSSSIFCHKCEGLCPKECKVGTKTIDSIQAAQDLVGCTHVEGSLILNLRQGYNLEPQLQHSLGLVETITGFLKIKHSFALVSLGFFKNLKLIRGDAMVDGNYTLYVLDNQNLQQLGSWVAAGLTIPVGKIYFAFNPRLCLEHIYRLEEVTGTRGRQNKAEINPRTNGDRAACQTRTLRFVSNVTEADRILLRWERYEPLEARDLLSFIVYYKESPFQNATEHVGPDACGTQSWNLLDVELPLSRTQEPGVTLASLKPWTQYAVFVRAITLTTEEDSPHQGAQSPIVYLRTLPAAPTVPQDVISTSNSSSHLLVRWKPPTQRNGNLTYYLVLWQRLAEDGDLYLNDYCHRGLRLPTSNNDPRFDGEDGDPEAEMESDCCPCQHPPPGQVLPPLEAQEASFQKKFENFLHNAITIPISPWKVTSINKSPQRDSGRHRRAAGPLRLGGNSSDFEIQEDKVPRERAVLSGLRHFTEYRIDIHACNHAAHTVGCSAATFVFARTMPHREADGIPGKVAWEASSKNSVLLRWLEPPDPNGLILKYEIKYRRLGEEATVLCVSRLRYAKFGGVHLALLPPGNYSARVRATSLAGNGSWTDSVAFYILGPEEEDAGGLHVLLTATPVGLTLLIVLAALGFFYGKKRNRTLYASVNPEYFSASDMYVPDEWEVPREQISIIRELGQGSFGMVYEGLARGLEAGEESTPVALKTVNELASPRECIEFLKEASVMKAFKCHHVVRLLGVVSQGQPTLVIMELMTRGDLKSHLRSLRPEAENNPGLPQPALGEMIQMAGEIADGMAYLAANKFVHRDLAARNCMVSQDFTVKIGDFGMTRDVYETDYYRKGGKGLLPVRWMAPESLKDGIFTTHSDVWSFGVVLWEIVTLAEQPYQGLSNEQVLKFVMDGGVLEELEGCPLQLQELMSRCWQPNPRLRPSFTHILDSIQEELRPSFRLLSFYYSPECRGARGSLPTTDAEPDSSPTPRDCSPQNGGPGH
Sequence of panel of more than 300 wild-type and mutant kinases (313 kinase panel) (Homo sapiens, UniProt P08631) (P08631 whole entry, change not shown): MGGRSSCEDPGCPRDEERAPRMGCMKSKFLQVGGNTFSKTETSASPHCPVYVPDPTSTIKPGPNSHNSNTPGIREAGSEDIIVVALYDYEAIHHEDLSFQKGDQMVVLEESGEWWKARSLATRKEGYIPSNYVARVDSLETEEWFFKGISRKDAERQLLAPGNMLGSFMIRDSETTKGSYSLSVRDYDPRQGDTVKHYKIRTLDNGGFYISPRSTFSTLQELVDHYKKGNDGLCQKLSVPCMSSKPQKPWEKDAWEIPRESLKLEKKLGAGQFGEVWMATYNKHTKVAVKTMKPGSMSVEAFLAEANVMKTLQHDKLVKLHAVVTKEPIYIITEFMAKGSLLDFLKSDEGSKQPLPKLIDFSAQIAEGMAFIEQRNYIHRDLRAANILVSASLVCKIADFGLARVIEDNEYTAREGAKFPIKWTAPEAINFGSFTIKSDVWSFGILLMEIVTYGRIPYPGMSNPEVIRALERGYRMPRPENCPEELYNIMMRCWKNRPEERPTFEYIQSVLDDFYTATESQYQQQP
Sequence of panel of more than 300 wild-type and mutant kinases (313 kinase panel) (Homo sapiens, UniProt P07949, M918T) (P07949 29-1114 M918T): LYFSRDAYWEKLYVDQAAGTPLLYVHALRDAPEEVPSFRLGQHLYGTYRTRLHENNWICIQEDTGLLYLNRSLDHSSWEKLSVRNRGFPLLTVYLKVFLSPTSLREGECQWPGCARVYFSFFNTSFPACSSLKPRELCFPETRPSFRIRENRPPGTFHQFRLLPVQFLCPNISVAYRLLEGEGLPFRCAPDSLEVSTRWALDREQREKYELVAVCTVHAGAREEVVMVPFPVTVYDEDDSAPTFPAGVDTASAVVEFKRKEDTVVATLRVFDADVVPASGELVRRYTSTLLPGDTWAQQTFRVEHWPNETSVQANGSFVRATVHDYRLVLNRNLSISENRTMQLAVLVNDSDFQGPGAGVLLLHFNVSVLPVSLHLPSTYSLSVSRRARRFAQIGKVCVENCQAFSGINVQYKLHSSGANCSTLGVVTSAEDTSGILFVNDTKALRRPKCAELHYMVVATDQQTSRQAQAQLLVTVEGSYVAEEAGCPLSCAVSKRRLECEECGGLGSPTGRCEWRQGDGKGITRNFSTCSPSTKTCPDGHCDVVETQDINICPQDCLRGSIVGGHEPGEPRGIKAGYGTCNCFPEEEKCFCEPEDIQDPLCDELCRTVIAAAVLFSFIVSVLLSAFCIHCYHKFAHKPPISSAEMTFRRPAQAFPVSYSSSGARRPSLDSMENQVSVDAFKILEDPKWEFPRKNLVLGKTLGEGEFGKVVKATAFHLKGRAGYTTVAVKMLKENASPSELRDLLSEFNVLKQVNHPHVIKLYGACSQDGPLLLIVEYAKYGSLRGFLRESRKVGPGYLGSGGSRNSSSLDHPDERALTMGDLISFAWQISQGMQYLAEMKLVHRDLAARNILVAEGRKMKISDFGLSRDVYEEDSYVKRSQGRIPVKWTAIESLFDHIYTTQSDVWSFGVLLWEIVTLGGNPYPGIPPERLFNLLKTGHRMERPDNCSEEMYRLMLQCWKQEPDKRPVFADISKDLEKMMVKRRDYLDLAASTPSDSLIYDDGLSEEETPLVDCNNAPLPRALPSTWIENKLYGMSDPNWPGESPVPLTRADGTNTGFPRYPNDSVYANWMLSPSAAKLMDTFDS

For `Cc1cn(-c2cc(NC(=O)c3ccc(C)c(Nc4nccc(-c5cccnc5)n4)c3)cc(C(F)(F)F)c2)cn1` [nilotinib], the “%-inhibition of RET(M918T)” value [1] was 0.118%, the “%-inhibition of HCK” value [2] was 73% and the “%-inhibition of ROS” value [3] was -0.679%. For the same compound, the “%-inhibition of IRR” value [4] was -0.717%, the “%-inhibition of GSK3β” value [5] was 10% and the “%-inhibition of DDR1” value [6] was 103%. For the same compound, the “%-inhibition of PKD1” value [7] was -6% and the “%-inhibition of MAP3K3” value [8] was -21%.
